Data reported in article PMC3399945 (Journal of the American Chemical Society, 2012).
Square brackets hold non-standard residues; d marks the D form. Peptide text beside a SMILES is read from it. * marks the point of attachment. X1 = NC(=O)CC[C@@H]1NC(=O)CC/C=C/CN(CCC(=O)*)C(=O)[C@H](CCC(=O)O)NC1=O; β3hL = CC(C)C[C@H](N)CC(=O)O

Tests used:
[1] = Thermal denaturation monitored by CD / Zimm–Bragg model; type: physicochemical; settings: from broad thermal transition, CD in 10% TFE/PBS, Zimm–Bragg simulation
[2] = target: N-terminal His6-tagged MDM2 (25–117) (Homo sapiens, UniProt Q00987); experiment: Fluorescence polarization-based competition binding assay with Flu-p53; settings: comparison with previously reported affinity of 1 (ref 38)
[3] = Amide hydrogen-deuterium exchange; type: physicochemical; settings: for H/D rate constant: D2O/TFE-d3 80/20, 20 °C, NMR, in duplicate; for Stabilization, −ΔG (free energy of protection): from H/D exchange, 20 °C
[4] = type: physicochemical; settings: 10% TFE in PBS, 25 °C, 100 μM peptide, pH 7.4

Compound | nucleation constant σ [1] | affinity for MDM2 compared with HBS α-helix 1 (in words) [2] | H/D rate constant ([3]; residue 4 (F^4)) [h⁻¹] | H/D rate constant ([3]; residue 5 (S^5)) [h⁻¹] | H/D rate constant ([3]; residue 8 (W^8)) [h⁻¹] | H/D rate constant ([3]; residue 9 (K^9)) [h⁻¹] | H/D rate constant ([3]; residue 12 (S^12)) [h⁻¹] | CD signature (in words) [4] | Stabilization, −ΔG (free energy of protection) ([3]; residue 6 (D^6 in 1 and 2, Dβ^6 in 3)) [kcal/mol] | Stabilization, −ΔG (free energy of protection) ([3]; residue 7 (L^7 in 1 and 3, Lβ^7 in 2)) [kcal/mol] | Stabilization, −ΔG (free energy of protection) ([3]; residue 8 (W^8)) [kcal/mol] | Stabilization, −ΔG (free energy of protection) ([3]; residue 9 (K^9)) [kcal/mol] | Stabilization, −ΔG (free energy of protection) ([3]; residue 10 (L^10 in 1 and 2, Lβ^10 in 3)) [kcal/mol] | Stabilization, −ΔG (free energy of protection) ([3]; residue 11 (L^11 in 1 and 3, Lβ^11 in 2)) [kcal/mol] | Stabilization, −ΔG (free energy of protection) ([3]; residue 12 (S^12)) [kcal/mol]
CC(C)C[C@@H](CC(=O)N[C@@H](CC(C)C)C(=O)N[C@@H](CO)C(N)=O)NC(=O)[C@H](CCCCN)NC(=O)[C@H](Cc1c[nH]c2ccccc12)NC(=O)[C@H](CC(C)C)NC(=O)C[C@H](CC(=O)O)NC(=O)[C@H](CO)NC(=O)[C@H](Cc1ccccc1)NC(=O)CN1C/C=C/CCC(=O)N[C@@H](CCC(N)=O)C(=O)N[C@@H](CCC(=O)O)CC1=O [Peptide 3] | ≥ 1 | comparable to that previously reported for the optimized HBS p53 α-helix analog 1 | 1.33e-05 | 1.07e-05 | 1.4e-06 | 8e-07 | 2.6e-06 | – | – | – | – | – | – | – | –
CC(C)C[C@@H](CC(=O)N[C@@H](Cc1c[nH]c2ccccc12)C(=O)N[C@@H](CCCCN)C(=O)N[C@@H](CC(C)C)C(=O)N[C@H](CC(=O)N[C@@H](CO)C(N)=O)CC(C)C)NC(=O)[C@H](CC(=O)O)NC(=O)[C@H](CO)NC(=O)[C@H](Cc1ccccc1)NC(=O)CCN1C/C=C/CCC(=O)N[C@@H](CCC(N)=O)C(=O)N[C@@H](CCC(=O)O)C1=O [Peptide 2] (X1-FSD[β3hL]WKL[β3hL]S-NH2) | ≥ 1 | – | 0.0003809 | 0.0003809 | 6.9e-06 | 2.8e-06 | 5.85e-05 | – | – | – | – | – | – | – | –
XQEG*FSDLWKLLS-NH2 (sidechain bridge or staple) [Peptide 1] | – | – | 0.0003808 | 0.0003808 | 1.8e-06 | 5.1e-06 | 7.8e-06 | CD signature typical of a canonical α-helix, with double minima near 206 and 222 nm and a maximum at 190 nm | -0.58 | 0.52 | 1.22 | 1.23 | 1.40 | 1.04 | 1.42
